Measurements taken from the NIST ThermoML archive (doi:10.1021/je3009073).

Assay: xn = mol fraction of the nth substance listed
Details: 101 kPa, Liquid; for viscosity: Capillary tube (Ostwald / Ubbelohde) method; for mass density: Pycnometric method

CC(O)C(=O)[O-].CN(C)C(N)=[N+](C)C [1,1,3,3-tetramethylguanidinium lactate] + O
Details	mass density [kg/m3]	viscosity [mPa·s]
303.15 K, x2 = 0	1123.5	13684
303.15 K, x2 = 0.1001	1124	7665.3
303.15 K, x2 = 0.2165	1124.3	3594.1
303.15 K, x2 = 0.3182	1124.7	1926
303.15 K, x2 = 0.409	1124.9	1128.2
303.15 K, x2 = 0.5036	1124.5	554.56
303.15 K, x2 = 0.6044	1122.8	253.27
303.15 K, x2 = 0.7034	1119.9	104.72
303.15 K, x2 = 0.8113	1111.2	32.59
303.15 K, x2 = 0.9017	1088.3	8.68
303.15 K, x2 = 0.95	1058.1	3.32
308.15 K, x2 = 0	1120.9	7295.9
308.15 K, x2 = 0.1001	1121.2	4186.3
308.15 K, x2 = 0.2165	1121.5	2150.1
308.15 K, x2 = 0.3182	1121.9	1141.9
308.15 K, x2 = 0.409	1122.1	698
308.15 K, x2 = 0.5036	1121.3	352.18
308.15 K, x2 = 0.6044	1119.7	175.49
308.15 K, x2 = 0.7034	1116.7	74.98
308.15 K, x2 = 0.8113	1107.9	25.05
308.15 K, x2 = 0.9017	1084.9	7.1
308.15 K, x2 = 0.95	1055	2.83
313.15 K, x2 = 0	1117.6	3961.9
313.15 K, x2 = 0.1001	1117.9	2412.1
313.15 K, x2 = 0.2165	1118.1	1263.3
313.15 K, x2 = 0.3182	1118.4	718.88
313.15 K, x2 = 0.409	1118.5	429.45
313.15 K, x2 = 0.5036	1117.6	235.35
313.15 K, x2 = 0.6044	1116.1	122.11
313.15 K, x2 = 0.7034	1113.1	55.39
313.15 K, x2 = 0.8113	1104.2	19.16
313.15 K, x2 = 0.9017	1081.5	5.87
313.15 K, x2 = 0.95	1051.5	2.41
318.15 K, x2 = 0	1114.3	2264.3
318.15 K, x2 = 0.1001	1114.5	1261.7
318.15 K, x2 = 0.2165	1114.6	797.81
318.15 K, x2 = 0.3182	1114.9	458.45
318.15 K, x2 = 0.409	1114.9	289.6
318.15 K, x2 = 0.5036	1114.1	167.33
318.15 K, x2 = 0.6044	1112.6	89.04
318.15 K, x2 = 0.7034	1109.6	42
318.15 K, x2 = 0.8113	1100.6	15.25
318.15 K, x2 = 0.9017	1078.1	4.94
318.15 K, x2 = 0.95	1048.4	2.1
323.15 K, x2 = 0	1111.6	1365.5
323.15 K, x2 = 0.1001	1111.7	890.99
323.15 K, x2 = 0.2165	1111.7	502.11
323.15 K, x2 = 0.3182	1112	310.53
323.15 K, x2 = 0.409	1111.8	201.98
323.15 K, x2 = 0.5036	1111.1	120.29
323.15 K, x2 = 0.6044	1109.2	64.59
323.15 K, x2 = 0.7034	1106.7	32.53
323.15 K, x2 = 0.8113	1097.1	12.34
323.15 K, x2 = 0.9017	1074.5	4.2
323.15 K, x2 = 0.95	1045.6	1.86
328.15 K, x2 = 0	1108.1	867.05
328.15 K, x2 = 0.1001	1108.1	579.99
328.15 K, x2 = 0.2165	1108.2	341
328.15 K, x2 = 0.3182	1108.4	218.6
328.15 K, x2 = 0.409	1108.2	146.62
328.15 K, x2 = 0.5036	1107.4	88.71
328.15 K, x2 = 0.6044	1105.6	49.38
328.15 K, x2 = 0.7034	1102.9	25.68
328.15 K, x2 = 0.8113	1093.2	10.19
328.15 K, x2 = 0.9017	1070.6	3.62
328.15 K, x2 = 0.95	1042.5	1.65

CC(O)C(=O)[O-].[NH3+]CCO (stereo not drawn) [2-hydroxyethylammonium lactate] + O
Details	mass density [kg/m3]	viscosity [mPa·s]
303.15 K, x2 = 0	1226.1	11341
303.15 K, x2 = 0.116	1225.3	6523.5
303.15 K, x2 = 0.2026	1223	3828.7
303.15 K, x2 = 0.3045	1220	2137.9
303.15 K, x2 = 0.4043	1216.5	1051
303.15 K, x2 = 0.5027	1210.1	498.98
303.15 K, x2 = 0.6023	1203.2	212
303.15 K, x2 = 0.7016	1190.3	74.69
303.15 K, x2 = 0.8022	1167.2	22.28
303.15 K, x2 = 0.9007	1121	5.19
303.15 K, x2 = 0.9501	1076	2.24
308.15 K, x2 = 0	1223.1	6699.9
308.15 K, x2 = 0.116	1222.2	3975.1
308.15 K, x2 = 0.2026	1219.9	2401.1
308.15 K, x2 = 0.3045	1216.9	1372.6
308.15 K, x2 = 0.4043	1213.4	675.18
308.15 K, x2 = 0.5027	1206.9	343.45
308.15 K, x2 = 0.6023	1200.2	156.6
308.15 K, x2 = 0.7016	1187.2	56.32
308.15 K, x2 = 0.8022	1164.2	18.03
308.15 K, x2 = 0.9007	1118.2	4.46
308.15 K, x2 = 0.9501	1073.5	1.97
313.15 K, x2 = 0	1220.4	4144.6
313.15 K, x2 = 0.116	1219.5	2468.4
313.15 K, x2 = 0.2026	1217.1	1570.4
313.15 K, x2 = 0.3045	1214.1	900.49
313.15 K, x2 = 0.4043	1210.6	458.18
313.15 K, x2 = 0.5027	1204.1	243.72
313.15 K, x2 = 0.6023	1197.3	109.99
313.15 K, x2 = 0.7016	1184.3	43.42
313.15 K, x2 = 0.8022	1161.5	14.62
313.15 K, x2 = 0.9007	1115.7	3.83
313.15 K, x2 = 0.9501	1071.2	1.74
318.15 K, x2 = 0	1217.4	2653.8
318.15 K, x2 = 0.116	1216.3	1615.5
318.15 K, x2 = 0.2026	1213.9	1047.4
318.15 K, x2 = 0.3045	1211	601.07
318.15 K, x2 = 0.4043	1207.6	321.24
318.15 K, x2 = 0.5027	1201	174.88
318.15 K, x2 = 0.6023	1194.2	83.91
318.15 K, x2 = 0.7016	1181.2	34.39
318.15 K, x2 = 0.8022	1158.4	11.85
318.15 K, x2 = 0.9007	1112.7	3.35
318.15 K, x2 = 0.9501	1068.4	1.57
323.15 K, x2 = 0	1214.9	1733.6
323.15 K, x2 = 0.116	1213.7	1084.5
323.15 K, x2 = 0.2026	1211.3	717.58
323.15 K, x2 = 0.3045	1208.3	418.69
323.15 K, x2 = 0.4043	1204.9	232.51
323.15 K, x2 = 0.5027	1198.1	–
323.15 K, x2 = 0.6023	1191.5	64.89
323.15 K, x2 = 0.7016	1178.4	27.88
323.15 K, x2 = 0.8022	1155.7	9.96
323.15 K, x2 = 0.9007	1110.1	2.94
323.15 K, x2 = 0.9501	1065.8	1.41
328.15 K, x2 = 0	1212	1182.5
328.15 K, x2 = 0.116	1210.6	742.12
328.15 K, x2 = 0.2026	1208.1	478.37
328.15 K, x2 = 0.3045	1205.3	299.81
328.15 K, x2 = 0.4043	1201.7	173.38
328.15 K, x2 = 0.5027	1195.1	99.46
328.15 K, x2 = 0.6023	1188.4	50.52
328.15 K, x2 = 0.7016	1175.3	22.65
328.15 K, x2 = 0.8022	1152.6	8.43
328.15 K, x2 = 0.9007	1107	2.61
328.15 K, x2 = 0.9501	1063	1.25
